This note sets out measurements from patent US20090203708A1, “NOVEL SUBSTITUTED-1-H-QUINAZOLINE-2,4-DIONE DERIVATIVES, PREPARATION METHOD THEREOF AND PHARMACEUTICAL COMPOSITION CONTAINING THE SAME” (Korea Research Institute of Chemical Technology, priority 2006, published 2009).

As a reminder, the IC50 is the concentration at which inhibition is half-maximal. A lower IC50 goes with greater potency. As usually defined, the melting point is the temperature, or range, at which the solid turns liquid.

Data set [1] addresses human serotonin 5-HT6 receptor (Homo sapiens, UniProt P50406). As to the kind of experiment: [3H]LSD binding assay for cloned 5-HT6 receptors.

SMILES strings stand for the structures.

human serotonin 5-HT6 receptor, sequence (P50406 whole entry): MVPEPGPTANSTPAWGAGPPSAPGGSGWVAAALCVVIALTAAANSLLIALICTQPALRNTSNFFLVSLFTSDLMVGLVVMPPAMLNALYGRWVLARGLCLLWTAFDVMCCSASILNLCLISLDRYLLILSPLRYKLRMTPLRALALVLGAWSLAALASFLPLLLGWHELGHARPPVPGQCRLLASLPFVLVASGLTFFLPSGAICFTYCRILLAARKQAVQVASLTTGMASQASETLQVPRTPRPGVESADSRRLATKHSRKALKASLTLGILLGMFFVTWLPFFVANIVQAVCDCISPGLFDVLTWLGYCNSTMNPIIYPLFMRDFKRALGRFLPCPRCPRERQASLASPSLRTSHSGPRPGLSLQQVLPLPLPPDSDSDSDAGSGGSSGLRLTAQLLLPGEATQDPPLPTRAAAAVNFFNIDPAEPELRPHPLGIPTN

Compound `CN1CCN(c2cc(Cl)cc3c2c(=O)n(Cc2cccc(Br)c2)c(=O)n3Cc2ccccc2)CC1` [Example 15, 1-benzyl-3-(3-bromo-benzyl)-7-chloro-5-(4-methyl-piperazin-1-yl)-1H-quinazoline-2,4-dione] registered a melting point of 154 to 157 °C. In data set [1], this compound displayed a concentration for half-maximal inhibition (IC50) of 2.7 nM. As to `CN1CCN(c2cc(Cl)cc3c2c(=O)n(Cc2ccc(Br)cc2)c(=O)n3Cc2ccccc2)CC1` [Example 16, 1-benzyl-3-(4-bromo-benzyl)-7-chloro-5-(4-methyl-piperazin-1-yl)-1H-quinazoline-2,4-dione], the melting point is 93 to 98 °C. Moreover, the half-maximal inhibitory concentration (IC50) in data set [1] was determined as 3.3 nM. On the same counts, the results for `COc1ccccc1Cn1c(=O)c2c(N3CCNCC3)cc(Cl)cc2n(Cc2ccccc2)c1=O` [Example 63, 1-benzyl-7-chloro-3-(2-methoxy-benzyl)-5-piperazin-1-yl-1H-quinazoline-2,4-dione] are 122 to 125 °C and 2.3 nM.

In turn, `CC(C)Cc1cccc(CCCn2c(=O)c3c(N4CCN(C)CC4)cc(Cl)cc3n(Cc3ccccc3)c2=O)c1` [Example 45, 1-benzyl-7-chloro-3-[3-(3-isobutyl-phenyl)-propyl]-5-(4-methyl-piperazin-1-yl)-1H-quinazoline-2,4-dione] gave a melting point of 56 to 62 °C. For the same compound, the half-inhibitory concentration (IC50) in data set [1] was 10.5 nM. In the case of `CN1CCN(c2cc(Cl)cc3c2c(=O)n(Cc2ccccc2)c(=O)n3C)CC1` [Example 50, 3-benzyl-7-chloro-1-methyl-5-(4-methyl-piperazin-1-yl)-1H-quinazoline-2,4-dione], the melting point lay within 132 to 136 °C. The IC50 in data set [1] is greater than 1000 nM. The matching figures for `CN1CCN(c2cc(Cl)cc3c2c(=O)n(Cc2ccc(O)cc2)c(=O)n3Cc2ccccc2)CC1` [Example 30, 1-benzyl-7-chloro-3-(4-hydroxy-benzyl)-5-(4-methyl-piperazin-1-yl)-1H-quinazoline-2,4-dione]: 138 to 140 °C and 27 nM.

`COc1ccc(-n2c(=O)c3c(N4CCN(C)CC4)cc(Cl)cc3n(Cc3ccccc3)c2=O)cc1` [Example 9, 1-benzyl-7-chloro-3-(4-methoxy-phenyl)-5-(4-methyl-piperazin-1-yl)-1H-quinazoline-2,4-dione] had a melting point of 155 to 158 °C. This compound also came in with an IC50 in data set [1] of 12.4 nM. The matching figures for `CN1CCN(c2cc(Cl)cc3c2c(=O)n(Cc2ccccc2O)c(=O)n3Cc2ccccc2)CC1` [Example 28, 1-benzyl-7-chloro-3-(2-hydroxy-benzyl)-5-(4-methyl-piperazin-1-yl)-1H-quinazoline-2,4-dione]: 130 to 132 °C and 2.5 nM. As for `CCCCn1c(=O)n(Cc2ccccc2)c(=O)c2c(N3CCN(C)CC3)cc(Cl)cc21` [Example 53, 3-benzyl-1-butyl-7-chloro-5-(4-methyl-piperazin-1-yl)-1H-quinazoline-2,4-dione], the concentration for half-maximal inhibition (IC50) in data set [1] worked out at 30.2 nM. Regarding `CCn1c(=O)n(Cc2ccccc2)c(=O)c2c(N3CCN(C)CC3)cc(Cl)cc21` [Example 51, 3-benzyl-7-chloro-1-ethyl-5-(4-methyl-piperazin-1-yl)-1H-quinazoline-2,4-dione], the melting point was 68 to 75 °C. Besides, the IC50 in data set [1] turned out to be 729 nM. Consider `Cc1cccc(Cn2c(=O)c3c(N4CCN(C)CC4)cc(Cl)cc3n(Cc3ccccc3)c2=O)c1` [Example 23, 1-benzyl-7-chloro-3-(3-methyl-benzyl)-5-(4-methyl-piperazin-1-yl)-1H-quinazoline-2,4-dione], for which the melting point fell in the range of 171 to 175 °C. In data set [1], this compound displayed an IC50 of 2.6 nM. `CCCCn1c(=O)c2c(N3CCN(C)CC3)cc(Cl)cc2n(Cc2ccccc2)c1=O` [Example 4, 1-benzyl-3-butyl-7-chloro-5-(4-methyl-piperazin-1-yl)-1H-quinazoline-2,4-dione] had a half-maximal inhibitory concentration (IC50) in data set [1] of 2.8 nM. As for `O=c1c2c(N3CCNCC3)cc(Cl)cc2n(Cc2ccccc2)c(=O)n1Cc1ccccc1[N+](=O)[O-]` [Example 66, 1-benzyl-7-chloro-3-(2-nitro-benzyl)-5-piperazin-1-yl-1H-quinazoline-2,4-dione], the melting point lay in the range of 129 to 134 °C. In data set [1], this compound gave an IC50 of 5.7 nM.

As for `CCCn1c(=O)n(Cc2ccccc2)c(=O)c2c(N3CCN(C)CC3)cc(Cl)cc21` [Example 52, 3-benzyl-7-chloro-5-(4-methyl-piperazin-1-yl)-1-propyl-1H-quinazoline-2,4-dione], the IC50 in data set [1] was 169 nM.

As to `Cc1ccc(Cn2c(=O)c3c(N4CCN(C)CC4)cc(Cl)cc3n(Cc3ccccc3)c2=O)cc1C` [Example 39, 1-benzyl-7-chloro-3-(3,4-dimethyl-benzyl)-5-(4-methyl-piperazin-1-yl)-1H-quinazoline-2,4-dione], the melting point fell in the range of 96 to 99 °C. Further, the IC50 in data set [1] was 5.1 nM. On the same counts, the results for `CN1CCN(c2cc(Cl)cc3c2c(=O)n(CC2CCCCC2)c(=O)n3Cc2ccccc2)CC1` [Example 6, 1-benzyl-7-chloro-3-cyclohexylmethyl-5-(4-methyl-piperazin-1-yl)-1H-quinazoline-2,4-dione] are 163 to 169 °C and 4.2 nM. The matching figures for `CCn1c(=O)c2c(N3CCN(C)CC3)cc(Cl)cc2n(Cc2ccccc2)c1=O` [Example 2, 1-benzyl-7-chloro-3-ethyl-5-(4-methyl-piperazin-1-yl)-1H-quinazoline-2,4-dione]: 155 to 159 °C and 3.1 nM. On the same counts, the results for `CN1CCN(c2cc(Cl)cc3c2c(=O)n(Cc2cccc4ccccc24)c(=O)n3Cc2ccccc2)CC1` [Example 46, 1-benzyl-7-chloro-5-(4-methyl-piperazin-1-yl)-3-naphthalen-1-ylmethyl-1H-quinazoline-2,4-dione] are 75 to 89 °C and 3.2 nM. `CN1CCN(c2cc(Cl)cc3[nH]c(=O)n(Cc4ccccc4)c(=O)c23)CC1` [Example 49, 3-benzyl-7-chloro-5-(4-methyl-piperazin-1-yl)-1H-quinazoline-2,4-dione]: the melting point is 208 to 210 °C. In data set [1], this compound displayed an IC50 greater than 1000 nM.

In turn, `COc1cccc(Cn2c(=O)c3c(N4CCN(C)CC4)cc(Cl)cc3n(Cc3ccccc3)c2=O)c1` [Example 26, 1-benzyl-7-chloro-3-(3-methoxy-benzyl)-5-(4-methyl-piperazin-1yl)-1H-quinazoline-2,4-dione] gave a melting point of 98 to 110 °C. In addition, the IC50 in data set [1] turned out to be 7.9 nM. With `CN1CCN(c2cc(Cl)cc3c2c(=O)n(Cc2ccccc2N)c(=O)n3Cc2ccccc2)CC1` [Example 34, 3-(2-amino-benzyl)-1-benzyl-7-chloro-5-(4-methyl-piperazin-1-yl)-1H-quinazoline-2,4-dione], in data set [1], the IC50 was 2.5 nM. Still for that read-out and setting: as for `CN1CCN(c2cc(Cl)cc3c2c(=O)n(Cc2ccc(I)cc2)c(=O)n3Cc2ccccc2)CC1` [Example 21, 1-benzyl-7-chloro-3-(4-iodo-benzyl)-5-(4-methyl-piperazin-1-yl)-1H-quinazoline-2,4-dione], the figure is 4.7 nM; as for `Nc1ccccc1Cn1c(=O)c2c(N3CCNCC3)cc(Cl)cc2n(Cc2ccccc2)c1=O` [Example 67, 3-(2-amino-benzyl)-1-benzyl-7-chloro-5-piperazin-1-yl-1H-quinazoline-2,4-dione], 3.6 nM.
